Seven compounds from patent US9475750B2, “Phenylketone carboxylate compounds and pharmaceutical uses thereof” (PROMETIC BIOSCIENCES INC., priority 2010, dated 2016) can be followed below.

Entries after “also recorded” stand apart in the source; their conditions may differ.

The subject of series [1] is LPS-stimulated RAW264.7 (macrophage-like) cells. In words: IL-12 production on LPS-stimulated RAW264.7 cells (ELISA). In kind it is cell-based. Conditions: in the presence of LPS. How it is done: The effect of selected compounds on IL-12 production was undertaken in RAW264.7 (macrophage-like) cells. RAW264.7 cells were cultured with 100 ng/mL of LPS in presence or absence of compounds for 21 h in a humidified atmosphere of 95% air-5% carbon dioxide at 37° C. IL-12 concentration in the culture medium was measured using the IL-12 ELISA according to the manufacturer (BD Biosciences) recommendations.

Series [2] has as its system Normal Human Dermal Fibroblasts (NHDF). In words: TGF-β induced CTGF production on normal human dermal fibroblasts (ELISA). In kind it is cell-based. Conditions: 10 ng/mL TGF-β, 48 h. How it is done:
The effect of selected compounds on CTGF production was undertaken in NHDF. Cells were cultured in DMEM (0.5% FBS) with or without 10 ng/mL of TGF-β for 48 h in a humidified atmosphere of 95% air-5% carbon dioxide at 37° C. CTGF production in the culture medium was measured using the CTGF ELISA according to the manufacturer (Prepotech) recommendations. Table 3 represents the effect of selected representative compounds on the inhibition of TGF-βCTGF production in normal human dermal fibroblast (NHDF).
In general terms: An ELISA detects its analyte on a solid surface through an enzyme-linked reagent.

For series [3], the system named is doxorubicin-induced nephrotoxicity mouse model. In words: Renal protection in doxorubicin-induced nephrotoxicity model. Type of series: in vivo, C57BL/6 mice. The conditions noted are these: for serum albumin: oral prophylactic treatment day -3 to 10, doxorubicin 10 mg/kg iv day 0, day 11 (FIG. 2). How it is done:
C57BL/6 mice (6 to 10 week old) were treated with compounds prophylacticly from day −3 to day 10. Nephrotoxicity was induced by an intravenous injection of 10 mg/kg of doxorubicin at day 0. Serum albumin was monitored at day 11.

In series [4] the test system is cyclophosphamide immunosuppressed mice. In words: Chemoprotection in cyclophosphamide immunosuppressed mice. In kind it is in vivo, C57BL/6 mice. The conditions noted are these: 50 mg/kg oral day -3, -2, -1, cyclophosphamide 250 mg/kg iv day 0; for red bone marrow cell count: day +5 (FIG. 6); for white bone marrow cell count: day +5 (FIG. 7). How it is done:
Female C57BL/6 mice, 6 to 8 week old, were immunosuppressed by treatment with 250 mg/kg of cyclophosphamide administered intravenously at day 0. To examine the immunoprotective effect of Compound I and Compound II, mice were pre-treated orally at day −3, −2 and −1 with 50 mg/kg of each compound. Mice were sacrificed at day +5 by cardiac puncture and cervical dislocation. Then, a gross pathological observation of the femurs (as a source of bone marrow cells) was recorded. After the sacrifice, tissues were crushed in PBS buffer and cells were counted on a hemacytometer.

For series [5], the system named is 5/6-nephrectomized (NX) rats. In words: 5/6-nephrectomy model of kidney fibrosis. Type of series: in vivo, Wistar rats. On the procedure:
Male 6-week old Wistar rats were subjected to […] (5/6-NX) or sham operations. Under ketamine anesthesia (60 to 100 mg/kg, i.p.), two-thirds of the left kidney was removed on day 0 followed by the right total nephrectomy on day 7. Sham operated rats underwent exposition of the kidneys and removal of the perirenal fat. Animals that underwent the sham operation were given vehicle (saline) and were used as controls. 5/6-NX animals were treated by gastric gavage with the vehicle or Compound I administered daily at 10 and 50 mg/kg, respectively. Animals were treated from day 1 to 132 and were sacrificed at day 133. To evaluate renal function, creatinine clearance was measured at day 21 and every subsequent three weeks. Glomerular filtration rate (GFR) was then calculated. Serum urea, serum creatinine and kidney CTGF along with histological lesion score were also evaluated.

The test system of series [6] is UUO rats. The experiment in a line: Unilateral Ureteral Obstruction (UUO) rat model. Type of series: in vivo, Sprague-Dawley rats. On the procedure: The effect of treatment with Compound I was studied on the Unilateral Ureteral Obstruction (UUO) model, a model of kidney interstitial fibrosis. Sprague-Dawley rats were used at 6-8 weeks of age and 200-250 g in body weight. Rats were sedated by general anesthesia (isoflurane), then an incision was made in the left side of the back, and the left proximal ureter was exposed and triple-ligated. Sham-operated rats had their ureter exposed but not ligated. Rats were treated by oral gavage from day 1 to 13. Rats were sacrificed on day 14.

The test system of series [7] is human proximal tubule epithelial cells (HK-2). In words: TGF-β induced epithelial to mesenchymal transition (EMT), real-time PCR. Type of series: cell-based. How it is done: Further analysis was undertaken to determine the effect of Compound I on EMT. The effect of Compound I on TGF-β induced EMT was analyzed on human proximal tubule epithelial cells (HK-2). To assess the progression of EMT, the pro-epithelial marker E-cadherin and the mesenchymal/pro-fibrotic markers CTGF and collagen 1 were assayed by quantitative real-time PCR. To examine the prospective efficacy of Compound I in inhibiting TGF-β-induced EMT, we first verified the ability of TGF-β to induce EMT in HK-2 cells.
Background: Quantitative PCR measures a nucleic acid by following its amplification.

[8] abbreviates: oral treatment, mRNA, dose-response.
Where [9] appears, read: Compound alone, normal HK-2 cells.

As to `CCCCCCCCC(Oc1ccc(C(=O)CCCCCCC)cc1)C(=O)[O-].[Na+]` (racemic) [Compound I, Sodium (RS)-2-[4-Octanoylphenoxy]decanoate], in series [1], the “IL-12 production under inflammatory conditions” value is “increases IL-12 production in vitro (RAW.264 cells) only when inflammation is present”. Besides, in series [2] (7.5 μM), the inhibition (in general, how much of the control response was suppressed) at 7.5 µM turned out to be 41%. Besides, the “histological micrographs of doxorubicin-induced lesions” value in series [3] (FIG. 4) is “protects the kidney against doxorubicin toxicity”. Further, in series [3], the serum albumin entry was “inhibits the decrease of serum albumin”. For the same compound, the “serum CTGF” value in series [3] (oral treatment, p<0.01 (FIG. 5)) is “significant inhibition of CTGF production in serum”. Also, in series [3] (prophylactic treatment, day 11, glomerular and tubular level (FIG. 3)), the “histological kidney lesions score” value was “reduces the kidney lesions at the glomerular and tubular level”. In series [4], the “red bone marrow cell count” value is on record as “significant increase in red bone marrow cell count” and the “white bone marrow cell count” value was “increase in white bone marrow cell count”. In series [5] (10 mg/kg, day 21 to 105 (FIG. 13)), the “urinary excretion of MCP-1” value is “markedly reduced; also recorded: significantly decreased (from day 84)”. In addition, the proteinuria entry in series [5] (10 mg/kg, day 63 and day 84 (FIG. 10)) is listed as “reduction of proteinuria; also recorded: reduces proteinuria”. Also, in series [5] (10 and 50 mg/kg oral, day 1 to day 132 (FIG. 11)), the serum urea result is reported as “decreased serum urea”. Further, the “GFR expressed as percent of improvement” value in series [5] (10 and 50 mg/kg oral, day 84 and day 105 (FIG. 9)) was “improvement of GFR at day 84 and day 105”. The “GFR expressed as percent of improvement (renal functions)” value in series [5] (10 and 50 mg/kg oral, day 126 (FIG. 9)) is “deteriorated but to a lesser extent than that observed in the non-treated animals”. Besides, the serum creatinine result in series [5] (10 and 50 mg/kg, day 126 (FIG. 12)) is reported as “decreased serum creatinine”. In series [5] (10 or 50 mg/kg (FIG. 15)), the “interstitial and glomerular fibrosis/sclerosis (histology)” value was “reduction of interstitial and glomerular fibrosis/sclerosis”. For the same compound, in series [5] (oral 10 mg/kg), the “CTGF expression in the remnant kidney (real-time PCR)” value is recorded as “decreases significantly”, the “TGF-β expression in the remnant kidney (real-time PCR)” value is reported as “decreases significantly”, the “collagen 1 expression in the remnant kidney (real-time PCR)” value was “decreases significantly” and the “α-SMA expression in the remnant kidney (real-time PCR)” value is “decreases significantly”. The “kidney CTGF expression (Northern blot)” value in series [5] (oral 10 mg/kg (FIG. 16)) is given as “reduction of connective tissue growth factor (CTGF) expression”. In addition, the “need for Ringer's lactate solution over the period of treatment” value in series [5] (oral 50 mg/kg) is listed as “did not require Ringer's lactate solution”. Besides, the survival rate result in series [5] (oral 10 and 50 mg/kg (FIG. 17)) is recorded as “increases the survival rate”. Besides, in series [5] (oral 10 or 50 mg/kg, relative to untreated 5/6-NX group (FIG. 14)), the “kidney IL-12p40 level” value is listed as “significant (p=0.04 at 10 mg/kg) increase in IL-12p40”. In series [5] (oral, day 126, p=0.08 (FIG. 8)), the GFR entry is recorded as “improvement of GFR”. Also, the “kidney MCP-1” value in series [6] (50 mg/kg (FIG. 19)) is reported as “significantly reduced”. The serum albumin result in series [6] (oral 10 and 50 mg/kg, day 1 to 13 (FIG. 18)) is recorded as “prevented”. For the same compound, in series [6] (oral treatment, mRNA), the “TGF-β expression in the kidney” value is listed as “reduced TGF-β expression”. In series [6] (setting [8]), the “expression of CTGF in the kidney” value was “significant dose-response inhibition” and the “expression of collagen 1 in the kidney” value is listed as “significant dose-response inhibition”. Moreover, in series [7] (setting [9]), the “basal expression of CTGF” value is “downregulate basal expression” and the “basal expression of collagen 1” value is recorded as “downregulate basal expression”. Also, the E-cadherin transcript expression entry in series [7] (TGF-β induced EMT cells (FIG. 20)) was “upregulation of E-cadherin”. Besides, the CTGF transcript expression entry in series [7] (TGF-β induced EMT cells (FIG. 21)) was “downregulation”. Besides, in series [7] (TGF-β induced EMT cells (FIG. 22)), the “collagen 1 transcript expression” value is listed as “downregulation”.
Turning to `CCCCCCCC(=O)c1ccc2c(c1)CC(C(=O)O)C2` (racemic) [Compound III, Sodium (RS)-5-Octanoylindane-2-carboxylate], the inhibition at 62.5 µM in series [2] (62.5 μM) stood at 45%.
In the case of `CCCCCCCCC(Oc1ccc(C(=O)CCC)cc1)C(=O)[O-].[Na+]` (racemic) [Compound IX, Sodium (RS)-2-[4-Butyrylphenoxy]decanoate], the melting point (in general, the temperature of the solid-liquid transition) lay in the range of 262 to 278 °C.
As to `CCCCCCCC(=O)c1ccc(OC(CCCCCC)C(=O)[O-])cc1.[Na+]` (racemic) [Compound VIII, Sodium (RS)-2-[4-Octanoylphenoxy]octanoate], the melting point fell in the range of 165 to 170 °C.
Same read-out and setting: the value for `CCCCCCCCC(Oc1ccc(C(=O)CCCCC)cc1)C(=O)[O-].[Na+]` (racemic) [Compound X, Sodium (RS)-2-[4-Hexanoylphenoxy]decanoate] was 275 to 280 °C.
`CCCCCCCC(=O)c1cccc2c1CC(C(=O)O)C2` (racemic) [Compound XXVI, Sodium (RS)-4-Octanoylindane-2-carboxylate] returned an inhibition at 100 µM in series [2] (100 μM) of 59%.
As to `CCCCCCCC(=O)c1cccc(C(=O)[O-])c1.[Na+]` [Compound II, Sodium 3-Octanoylbenzoate], the serum albumin entry in series [3] is given as “inhibits the decrease of serum albumin”. Besides, in series [4], the “red bone marrow cell count” value is on record as “significant increase in red bone marrow cell count” and the “white bone marrow cell count” value is “increase in white bone marrow cell count”.
